Patent US20260317367A1, “SALTS INCLUDING CRYSTALLINE SALTS OF 25-HYDROXY-CHOLEST-5-EN-3-SULFATE AND METHODS FOR PREPARING SAME” (Durect Corporation, priority 2022, published 2026)
Where a name gives a salt, the structure may show the parent alone. Each block holds one molecule with its values, some of them ahead of it.

Key:
Assay type in all cases: physicochemical
[1] = Final pH of the solubility sample solutions in aqueous media; conditions: for pH of the solubility sample, 0.9% Sodium Chloride: 0.9% sodium chloride (blank 5.8); for pH of the solubility sample, 5% Dextrose: 5% dextrose (blank 4.7); for pH of the solubility sample, FaSSGF: FaSSGF (blank 1.5, 1.6); for pH of the solubility sample, FaSSIF: FaSSIF (blank 6.5, 6.5); for pH of the solubility sample, FeSSIF: FeSSIF (blank 4.9, 5.0); for pH of the solubility sample, Water: water (blank 6.3)
Method: 25HC3S salts were weighed in 8 mL or 4 mL glass vials with Teflon coated screw caps. Aliquots of each solvent were added to each sample and vortexed for about one minute until excess solid remained. Samples were placed on shaker at room temperature with 210 motion per minute shaking.
After one day, samples were pulled and checked if excess solid was present. About 1.5 mL aliquot of each sample was centrifuged at 12000 rpm for 12 to 15 minutes. […] Aliquots of the top clear solution of each centrifuged sample in MeOH, EtOH, IPA and ACN were diluted with diluent (water:MeOH 95:5) and assayed by HPLC. Samples of the salts in aqueous media were assayed by HPLC without dilution.
5.1 Solubility of 25HC3S Salts in Aqueous Media

[2] = Appearance (color, clumping, flowability) of stored 25HC3S salts
Method: Approximately 25 mg of each crystalline 25HC3S salt was added to 20 mL glass vials and each powder weight was recorded. Four vials were prepared for each salt and stored at 2-8° C. or 80° C. according to Table B2. The samples were scheduled initially to pull for testing at 3 weeks and 6 weeks' time points.
For those […] salts, the remaining vials stored at 2-8° C. for 3 weeks were allocated for storage at 60° C. for 1 week. Additional stability data was generated according to Table B3.
For appearance, each unopened vial was visually examined for color, clumping, and flowability.

[3] = Overall rank order of powder flowability (angle of repose and Hausner ratio); conditions: for Powder flowability, overall (in words): angle of repose and compressibility index/Hausner ratio combined; for Angle of Repose Rank Order / Hausner Ratio Rank Order / Overall Rank Order (Total Score): lower is better flow; for Overall Rank Order (Total Score): sum of both ranks
Source text: Table C5 was generated by adding the relative rank order of the 25HC3S salts for angle of repose and Hausner ratio results, and creating an Over All Rank Order of the salts powder flowability. The salts with the lower overall rank order score had better powder flowability.

[4] = Hausner ratio and compressibility index of 25HC3S salts; conditions: for Compressibility Index: Table C3 heads this index in %
Method: Although there are some variations in the method of determining the compressibility index and Hausner ratio, the basic procedure is to measure the unsettled apparent volume, VO, and the final tapped volume, Vf, of the powder after tapping the material until no further volume changes occur. The compressibility index and the Hausner ratio are calculated as follows: […]
Both the Hausner ratio and the compressibility index are empirically established. The Hausner ratio and compressibility index are not absolute properties of a material; its value can vary depending on the methodology used to determine them. In this case, since the 14 salts of 25HC3S were measured the same way, the relative values should be accurate.
Table C3, from USP <1174> Powder Flow, describes the flow character of the powder based on the compressibility index and Hausner ratio values.
Powder was carefully poured into a 5 mL glass graduated cylinder (to contain) until it was close to or at 5.0 mL. This initial volume was recorded as Vo. The graduated cylinder was tapped on a hard surface for 200 times and the volume was recorded. The cylinder was tapped 100 times more, and the final volume Vf was recorded. Typically, the volume after 200 taps was identical to after 300 taps, or within 0.1 mL.

[5] = Angle of repose of 25HC3S salts; conditions: for Flow Property per USP<1174> Powder Flow: classification by angle of repose
Method: Angle of repose is measured as follows. Powder is poured from a funnel onto a flat surface until a cone of powder is created. The angle of repose is calculated according to the following equation: […]
Table C1, from USP<1174> Powder Flow, describes the powder flow properties correlating to the angles of repose.
The lower the angle of repose, the more flowable is a material. Powder with an angle of repose between 25° to 30° will show excellent flow through a hopper, feed frame, die table and die bore smoothly. From 41° to greater than 66°, you may experience powder flow difficulties like rat-holing or bridging within the hopper.
The angle of repose was determined by pouring approximately 2 grams of a 25HC3S salt through a 7 mm inner diameter plastic tube into the center of a 21.14 mm diameter rubber O-ring, resulting in the formation of a powder cone of fixed diameter. The height of the cone was estimated with calipers.

[6] = Thermogravimetric analysis (TGA), weight loss
Method: Differential scanning calorimetry (DSC) is a thermoanalytical technique where the difference in the amount of heat required to increase the temperature of a sample and reference is measured as a function of temperature. Using this technique, phase transitions of a sample can be measured such as melting point. Decomposition can also be observed by DSC as can dehydration events. In the context of DSC measurements, there is also variability and the term “about” means ±1° C., and such variability is to be understood whether a DSC measurement is prefaced by “about” or not unless specified otherwise. Exemplary methods for collecting DSC data are set forth in Example 21. Thermogravimetric analysis, sometimes referred to as, thermal gravimetric analysis (TGA) is a thermal method of thermal analysis where the mass of a sample is measured as a function of time as the sample temperature changes. For example, when samples disclosed herein are heated and a loss in mass is measured prior to decomposition, this is likely indicative of the loss of water from the sample and may indicate that the sample being heated is a hydrate. Exemplary methods for collecting TGA are set forth in Example 23.
TG analysis was performed using a Mettler-Toledo TGA/DSC3 analyzer. Temperature and enthalpy adjustments were performed using indium, tin, and zinc, and then verified with indium. The balance was verified with calcium oxalate. The sample was placed in an open aluminum pan. The pan was hermetically sealed, the lid pierced, then inserted into the TG furnace. A weighed aluminum pan configured as the sample pan was placed on the reference platform. The furnace was heated under nitrogen. Each sample was heated from ambient temperature to 350° C. at 10° C./min. Although thermograms are plotted by reference temperature (x-axis), results are reported according to sample temperatures.

[7] = listed as 25HC3S tromethammonium
[8] = listed as 25HC3S diethanolamine
[9] = listed as 25HC3S t-butylammonium

- pH of the solubility sample, 0.9% Sodium Chloride [1, 7]: 7.2
- pH of the solubility sample, 5% Dextrose [1, 7]: 7.2
- pH of the solubility sample, FaSSGF [1]: 1.6
- pH of the solubility sample, FaSSIF [1, 7]: 6.5
- pH of the solubility sample, FeSSIF [1, 7]: 4.9
- pH of the solubility sample, Water [1, 7]: 8.4
- Appearance ([2]; 2-8° C., 3 wk, listed as 25HC3S tromethammonium): White, free flowing powder with clumping
- Appearance ([2]; 2-8° C., 5 wk): White, free flowing powder with clumping
- Appearance ([2]; 80° C., 3 wk, listed as 25HC3S tromethammonium): White, free flowing powder with clumping
- Appearance ([2]; 80° C., 5 wk): White, free flowing powder with clumping
- Powder flowability, overall (in words) ([3]; listed as tromethammonium): next group
- Angle of Repose Rank Order [3, 7]: 8
- Hausner Ratio Rank Order [3, 7]: 6
- Overall Rank Order (Total Score) [3, 7]: 14
- Compressibility Index [4, 7]: 28
- Hausner Ratio [4, 7]: 1.39
- Flow Property per USP<1174> Powder Flow [5, 7]: Fair - aid not needed
- Angle of Repose [5, 7]: 40.2 degrees
- Angle of Repose, Rounded Whole Number [5, 7]: 40 degrees
- Weight loss by TGA up to about 80° C. ([6]; up to about 80° C.): ~0.3%
SMILES: CC(CCCC(C)(C)O)C1CCC2C3CC=C4CC(OS(=O)(=O)O)CCC4(C)C3CCC12C (centres unmarked) [Salt #8]

- pH of the solubility sample, 0.9% Sodium Chloride ([1]; listed as 25HC3S benzathine): 8.2
- pH of the solubility sample, 5% Dextrose ([1]; listed as 25HC3S benzathine): 7.1
- pH of the solubility sample, FaSSGF [1]: 1.6
- pH of the solubility sample, FaSSIF ([1]; listed as 25HC3S benzathine): 6.5
- pH of the solubility sample, FeSSIF [1]: 5.0
- pH of the solubility sample, Water ([1]; listed as 25HC3S benzathine): 8.6
- Appearance ([2]; 2-8° C., 3 wk, listed as 25HC3S benzathine): White, free flowing powder with some
- Appearance ([2]; 2-8° C., 5 wk): White, free flowing powder with clumping
- Appearance ([2]; 80° C., 3 wk, listed as 25HC3S benzathine): White, free flowing powder with clumping
- Appearance ([2]; 80° C., 5 wk): White, free flowing powder with clumping
- Powder flowability, overall (in words) ([3]; listed as benzathine): next group
- Angle of Repose Rank Order ([3]; listed as 25HC3S benzathine): 12
- Hausner Ratio Rank Order ([3]; listed as 25HC3S benzathine): 7
- Overall Rank Order (Total Score) ([3]; listed as 25HC3S benzathine): 19
- Compressibility Index ([4]; listed as 25HC3S benzathine): 29
- Hausner Ratio ([4]; listed as 25HC3S benzathine): 1.40
- Flow Property per USP<1174> Powder Flow ([5]; listed as 25HC3S benzathine): Passable - may hang up
- Angle of Repose ([5]; listed as 25HC3S benzathine): 43.7 degrees
- Angle of Repose, Rounded Whole Number ([5]; listed as 25HC3S benzathine): 44 degrees
- Weight loss by TGA up to 200° C. ([6]; listed as crystalline 25HC3S benzathine): 0.4%
SMILES: CC(CCCC(C)(C)O)C1CCC2C3CC=C4CC(OS(=O)(=O)O)CCC4(C)C3CCC12C (centres unmarked) [Salt #9]

- pH of the solubility sample, 0.9% Sodium Chloride [1, 8]: 7.9
- pH of the solubility sample, 5% Dextrose [1, 8]: 7.2
- pH of the solubility sample, FaSSGF [1]: 1.6
- pH of the solubility sample, FaSSIF [1, 8]: 6.5
- pH of the solubility sample, FeSSIF [1, 8]: 4.9
- pH of the solubility sample, Water [1, 8]: 8.2
- Appearance ([2]; 2-8° C., 3 wk, listed as 25HC3S diethanolamine): White, free flowing powder with clumping
- Appearance ([2]; 2-8° C., 5 wk): White, free flowing powder with clumping
- Appearance ([2]; 80° C., 3 wk, listed as 25HC3S diethanolamine): White, free flowing powder with clumping
- Appearance ([2]; 80° C., 5 wk): White, free flowing powder with clumping
- Powder flowability, overall (in words) ([3]; listed as diethanolamine): poorer flowability
- Angle of Repose Rank Order [3, 8]: 14
- Hausner Ratio Rank Order [3, 8]: 9
- Overall Rank Order (Total Score) [3, 8]: 23
- Compressibility Index [4, 8]: 34
- Hausner Ratio [4, 8]: 1.52
- Flow Property per USP<1174> Powder Flow [5, 8]: Passable - may hang up
- Angle of Repose [5, 8]: 49.2 degrees
- Angle of Repose, Rounded Whole Number [5, 8]: 49 degrees
- Weight loss by TGA up to 175° C. (in words) ([6]; up to 175° C.): Negligible weight loss
SMILES: CC(CCCC(C)(C)O)C1CCC2C3CC=C4CC(OS(=O)(=O)O)CCC4(C)C3CCC12C (centres unmarked) [Salt #10]

- pH of the solubility sample, 0.9% Sodium Chloride [1, 9]: 8.4
- pH of the solubility sample, 5% Dextrose [1, 9]: 7.2
- pH of the solubility sample, FaSSGF [1]: 1.6
- pH of the solubility sample, FaSSIF [1, 9]: 6.5
- pH of the solubility sample, FeSSIF [1]: 5.0
- pH of the solubility sample, Water [1, 9]: 8.5
- Appearance ([2]; 2-8° C., 3 wk, listed as 25HC3S t-butylammonium): White, free flowing powder with clumping
- Appearance ([2]; 2-8° C., 5 wk): White, free flowing powder with clumping
- Appearance ([2]; 80° C., 3 wk, listed as 25HC3S t-butylammonium): White, free flowing powder with clumping
- Appearance ([2]; 80° C., 5 wk): White, free flowing powder with clumping
- Powder flowability, overall (in words) ([3]; listed as t-butylammonium): poorer flowability
- Angle of Repose Rank Order [3, 9]: 13
- Hausner Ratio Rank Order [3, 9]: 8
- Overall Rank Order (Total Score) [3, 9]: 21
- Compressibility Index [4, 9]: 33
- Hausner Ratio [4, 9]: 1.48
- Flow Property per USP<1174> Powder Flow [5, 9]: Poor - must agitate,
- Angle of Repose [5, 9]: 46.3 degrees
- Angle of Repose, Rounded Whole Number [5, 9]: 46 degrees
- Weight loss by TGA up to 200° C. ([6]; listed as crystalline 25HC3S t-butylammonium): 0.2%
SMILES: CC(CCCC(C)(C)O)C1CCC2C3CC=C4CC(OS(=O)(=O)O)CCC4(C)C3CCC12C (centres unmarked) [Salt #12]
